Results as given in patent publication US20220031607A1, “INJECTION COMPOSITION CONTAINING FAB I INHIBITOR, AND PREPARATION METHOD THEREFOR” (CRYSTALGENOMICS, INC., priority 2019, published 2022).

Columns and labels:
[1] = system: Methicillin-susceptible Staphylococcus aureus strains; assay: Drug susceptibility (MIC) of methicillin-susceptible clinical isolates; format: cell-based; details: Methicillin-susceptible, n = 103
Procedure: In order to verify the inhibitory effect of the compound of formula 1 on antibiotic-resistant strains, drug susceptibility was evaluated by treating the compound of formula 1 with Staphylococcus aureus phenotype isolated from each patient. In an in vitro test for antibiotic development, the most important result can be MIC90 (minimum inhibitory concentration required to inhibit the growth of 90% of the total bacterial population). […] Appelbaum at Hershey Hospital who is recognized for its authority in the field of anti-infection worldwide.

[2] = system: Staphylococcus aureus ATCC 29213 (MSSA) and 13B-382 (MRSA); assay: Pharmacokinetic/pharmacodynamic analysis in neutropenic mouse thigh infection model; format: in vivo, ICR mouse; details: oral administration
Procedure: For the compound of formula 1, pharmacokinetic/pharmacodynamic experiments were conducted using a mouse infection model. To this end, experiments were conducted with Staphylococcus aureus ATCC 29213 (MSSA, standard strain) and 13B-382 (MRSA, clinical strain). As a medium, Mueller-Hinton broth or Cation-adjusted Mueller-Hinton broth was used. For the susceptibility test (minimum inhibitory concentration (MIC)), the compound of formula 1 was used.
An aseptic (Specific pathogen free, SPF) female, 6 weeks old (23˜27 g) ICR mouse (Orient Bio Inc, Gapyeong, Korea) was used, and the experiment was carried out in compliance with the regulations and procedures with the permission of the Ethics committees for animal experiments in accordance with the Animal Protection Act and the Laboratory Animal Act. […]
After 24 hours of drug administration, the mouse was euthanized with carbon dioxide gas and its thigh was separated, put in physiological saline, and cut finely with a homogenizer (Kinematica AG/Polytron®). […] The number of viable cells was counted and recorded. The results were expressed as log10 CFU/thigh, and the measurement limit of the number of viable cells in the laboratory was 1×10^2 CFU/thigh.
T/MIC was evaluated as an index to determine the effect of antibiotics in combination with the antimicrobial action and pharmacokinetic results according to the antimicrobial dosage and administration. […]

MIC Range [1]: 0.06 to 1.0 µg/mL
MIC50 ([1]; Staphylococcus aureus, read-out: MIC50): 0.25 µg/mL
MIC90 ([1]; Staphylococcus aureus, read-out: MIC90): 0.25 µg/mL
T/MIC value at which more than 99.9% of bacteria were eradicated ([2]; 24 hours): ≥ 20%
SMILES: Cc1c(N)cccc1Cn1ccc(OCCc2cccs2)cc1=O [Compound of formula 1, 1-(3-amino-2-methylbenzyl)-4-(2-thiophen-2-yl-ethoxy)-1H-pyridin-2-one]
bacteria eradicated ([2]; T/MIC value approximately 20% or higher): more than 99.9%
